# From patent publication US20080119477A1, “N-Biaryl and N-Arylheteroaryl Piperazine Derivatives as Modulators of the 5Ht2c Receptor Useful For the Treatment of Disorders Related Thereto” (priority 2004, published 2008)
# Legend:
# human 5HT2C receptor = target: T1, human 5HT2C receptor (Homo sapiens, UniProt P28335); experiment: Intracellular IP3 accumulation assay, 5HT2C; assay type: cell-based; settings: HEK293 cells transfected with human 5HT2C receptor cDNA; read-out: 5HT2C (EC50) IP Accumulation Assay
# T1 construct: expressed in transfected cells; host or cells: HEK293
# T1 sequence (P28335 33-458): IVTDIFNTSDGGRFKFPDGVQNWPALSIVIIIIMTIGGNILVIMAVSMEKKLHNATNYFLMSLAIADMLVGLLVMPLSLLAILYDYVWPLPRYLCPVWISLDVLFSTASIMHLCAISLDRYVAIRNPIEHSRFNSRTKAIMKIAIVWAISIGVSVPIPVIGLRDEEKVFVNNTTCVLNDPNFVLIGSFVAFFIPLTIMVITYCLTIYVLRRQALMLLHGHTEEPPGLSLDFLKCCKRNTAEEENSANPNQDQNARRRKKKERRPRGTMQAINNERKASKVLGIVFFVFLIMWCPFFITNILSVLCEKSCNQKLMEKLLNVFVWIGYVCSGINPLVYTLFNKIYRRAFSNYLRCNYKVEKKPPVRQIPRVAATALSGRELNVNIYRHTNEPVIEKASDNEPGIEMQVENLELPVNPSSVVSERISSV
# Experimental: Intracellular IP3 Accumulation Assay:
# HEK293 cells were transfected in 15 cm sterile dishes with or without (control) 16 ug of human 5HT2C receptor cDNA [for example see, Saltzman, A. G., et al. Biochem. Biophys. Res. Commun. 181, 1469-1478 (1991)] using 25 ul of lipofectamine. Cells were then incubated for 3-4 hours at 37° C./5% CO2 and then transfection media was removed and replaced with 100 ul of DMEM. Cells were then plated onto 100 cm sterile dishes. The next day cells were plated into 96 well PDL microtiter plates at a density of 55 K/0.2 mL. Six hours latter, media was exchanged with [^3H]inositol (0.25 uCi/well) in inositol free DMEM and plates were incubated at 37° C./5% CO2 overnight. The next day, wells were aspirated and 200 ul of DMEM containing test compound, 10 uM pargyline, and 10 mM LiCl was added to appropriate wells. Plates were then incubated at 37° C./5% CO2 for three hours followed aspiration and by addition of fresh ice cold stop solution (1M KOH, 19 mM Na-borate, 3.8 mM EDTA) to each well. Plates were kept on ice for 5-10 min and the wells were neutralized by addition of 200 ul of fresh ice cold neutralization solution (7.5% HCl). Plates were then frozen until further processing is desired. The lysate was then transferred into 1.5 mL Eppendorf tubes and 1 mL of chloroform/methanol (1:2) was added/tube. […]
# 5HT2A receptor = 5HT2A receptor (Homo sapiens, UniProt P28223); experiment: EC50 against the 5HT2A receptor (selectivity); assay type: cell-based
# 5HT2B receptor = 5HT2B receptor (Homo sapiens, UniProt P41595); experiment: Activity against the 5HT2B receptor (selectivity); assay type: cell-based
# [1] = tested on: amyloid precursor protein (APPs) secretion; settings: guinea pigs, repeat administration; cited from earlier work
# Sequence of 5HT2B receptor (P41595 whole entry): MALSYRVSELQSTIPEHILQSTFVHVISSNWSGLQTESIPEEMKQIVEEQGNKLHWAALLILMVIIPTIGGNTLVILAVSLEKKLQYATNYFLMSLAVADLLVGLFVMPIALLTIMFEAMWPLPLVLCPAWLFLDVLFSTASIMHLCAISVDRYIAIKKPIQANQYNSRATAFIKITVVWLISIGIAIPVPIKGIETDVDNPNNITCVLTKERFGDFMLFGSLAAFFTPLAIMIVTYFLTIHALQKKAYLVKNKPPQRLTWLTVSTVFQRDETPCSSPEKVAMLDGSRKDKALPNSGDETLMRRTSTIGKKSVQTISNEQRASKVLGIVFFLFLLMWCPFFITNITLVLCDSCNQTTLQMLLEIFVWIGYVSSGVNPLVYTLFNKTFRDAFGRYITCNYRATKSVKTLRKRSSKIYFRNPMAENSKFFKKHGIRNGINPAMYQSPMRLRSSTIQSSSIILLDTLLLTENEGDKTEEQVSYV
# Sequence of 5HT2A receptor (P28223 whole entry): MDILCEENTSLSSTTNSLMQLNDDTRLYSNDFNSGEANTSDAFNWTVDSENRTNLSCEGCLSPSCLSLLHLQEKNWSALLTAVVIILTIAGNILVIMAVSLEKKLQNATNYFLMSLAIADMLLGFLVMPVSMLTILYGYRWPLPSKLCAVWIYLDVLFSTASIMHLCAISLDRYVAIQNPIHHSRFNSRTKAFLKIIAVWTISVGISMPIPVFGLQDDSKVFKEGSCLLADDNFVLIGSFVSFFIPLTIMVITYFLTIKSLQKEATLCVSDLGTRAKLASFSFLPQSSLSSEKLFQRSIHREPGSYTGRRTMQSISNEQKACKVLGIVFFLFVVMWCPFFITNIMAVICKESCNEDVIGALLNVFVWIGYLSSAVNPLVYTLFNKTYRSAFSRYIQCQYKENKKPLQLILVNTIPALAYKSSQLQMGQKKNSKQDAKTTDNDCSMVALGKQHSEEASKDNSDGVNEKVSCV
Compound,EC50 (human 5HT2C receptor) [nM],EC50 (5HT2A receptor) [nM],activity against the 5HT2B receptor (5HT2B receptor),amyloid precursor protein (APPs) secretion [1],levels of Aβ production in vivo [1]
"Fc1cc(-c2ccsc2)cc(N2CCNCC2)c1 [Compound 1, 1-(3-Fluoro-5-thiophen-3-yl-phenyl)-piperazine]",7,> 10000,essentially inactive,,
"Fc1ccc(-c2ccccc2)cc1N1CCNCC1 [Compound 10, 1-(4-Fluoro-biphenyl-3-yl)-piperazine]",21,,essentially inactive,,
C[C@H](N)Cc1cccc(C(F)(F)F)c1 [dexnorfenfluramine],,,,stimulated,reducing levels
